The values below come from patent US12319701B2, “Antagonists of the muscarinic acetylcholine receptor M4” (priority 2019, dated 2025).

The target in this test is T1, Human M4 (Homo sapiens, UniProt P08173).
T1 construct: expressed in transfected cells; host or cells: CHO-K1 (ATCC), stably co-expressing chimeric G protein Gqi5
T1 sequence (P08173 1-479): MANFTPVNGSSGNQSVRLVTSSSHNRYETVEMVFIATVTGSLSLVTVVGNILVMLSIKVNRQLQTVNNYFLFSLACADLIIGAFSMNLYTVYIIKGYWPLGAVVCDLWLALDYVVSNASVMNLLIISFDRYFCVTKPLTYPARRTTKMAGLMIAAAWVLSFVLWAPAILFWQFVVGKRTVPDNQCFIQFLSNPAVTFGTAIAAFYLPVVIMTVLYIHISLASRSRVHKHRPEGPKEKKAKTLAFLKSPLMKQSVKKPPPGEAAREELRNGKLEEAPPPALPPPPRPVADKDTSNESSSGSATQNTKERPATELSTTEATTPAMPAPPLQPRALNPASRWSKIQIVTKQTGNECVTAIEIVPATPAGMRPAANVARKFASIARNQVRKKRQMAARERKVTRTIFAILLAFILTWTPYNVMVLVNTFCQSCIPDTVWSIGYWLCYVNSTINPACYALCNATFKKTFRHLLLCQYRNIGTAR
In words: mAChR M4 cell-based functional assay (calcium flux, Fluo-4, M4/Gqi5/CHO-K1 cells). The settings on record: for remaining activity at 30 µM: CHO-K1, read-out: Human M4 Emin (%), % ACh maximum at 30 μM. How it is done: Human or rat M4 cDNA, along with the chimeric G protein Gqi5, were transfected into Chinese hamster ovary (CHO-K1) cells purchased from the American Type Culture Collection using Lipofectamine2000. M4/Gqi5/CHO cells were grown in Ham's F-12 medium containing 10% heat-inactivated fetal bovine serum (FBS), 20 mM HEPES, 500 μg/mL 418 sulfate, and 200 μg/mL Hygromycin B.
For high throughput measurement of agonist-evoked increases in intracellular calcium, CHO-K1 cells stably expressing muscarinic receptors were plated in growth medium lacking 418 and hygromycin at 15,000 cells/20 μL/well in Greiner 384-well black-walled, tissue culture (TC)-treated, clear-bottom plates (VWR). Cells were incubated overnight at 37° C. and 5% CO2. The next day, cells were washed using an ELX 405 (BioTek) with assay buffer; the final volume was then aspirated to 20 μL. Next, 20 μL of a 2.3 μM stock of Fluo-4/acetoxymethyl ester (Invitrogen, Carlsbad, CA), prepared as a 2.3 mM stock in DMSO and mixed in a 1:1 ratio with 10% (w/v) Pluronic F-127 and diluted in assay buffer, was added to the wells and the cell plates were incubated for 50 min at 37° C. and 5% CO2. Dye was removed by washing with the ELX 405 and the final volume was aspirated to 20 μL. Compound master plates were formatted in a 10 point concentration-response curve (CRC) format (1:3 dilutions) in 100% DMSO with a starting concentration of 10 or 1 mM using a BRAVO liquid handler (Agilent). Test compound CRCs were then transferred to daughter plates (240 nL) using the Echo acoustic plate reformatter (Labcyte, Sunnyvale, CA) and then diluted into assay buffer (40 μL) to a 2× stock using a Thermo Fisher Combi (Thermo Fisher Scientific, Waltham, MA).
Calcium flux was measured using the Functional Drug Screening System (FDSS) 6000 or 7000 (Hamamatsu Corporation, Tokyo, Japan) as an increase in the fluorescent static ratio. Compounds were applied to cells (20 μL, 2×) using the automated system of the FDSS at 2 seconds into the protocol and the data were collected at 1 Hz. At 143 s, 10 μL of an EC20 concentration of the muscarinic receptor agonist acetylcholine was added (5×), followed by the addition of 12 μL of an EC80 concentration of acetylcholine at the 268 s time point (5×). Agonist activity was analyzed as a concentration-dependent increase in calcium mobilization upon compound addition. Positive allosteric modulator activity was analyzed as a concentration-dependent increase in the EC20 acetylcholine response. Antagonist activity was analyzed as a concentration-dependent decrease in the ECK) acetylcholine response; for the purposes of the tables herein, an IC50 (inhibitory concentration 50) was calculated as a concentration-dependent decrease of the response elicited by an ECK) concentration of acetylcholine. Concentration-response curves were generated using a four-parameter logistical equation in XLFit curve fitting software (IDBS, Bridgewater, NJ) for Excel (Microsoft, Redmond, WA) or Prism (GraphPad Software, Inc., San Diego, CA) or the Dotmatics software platform (Dotmatics, Bishop's Stortford, UK).
Compounds were synthesized as described above. Activity (IC50 and Emin) was determined in the mAChR M4 cell-based functional assay as described above and the data are shown in Table 2.

A word on the IC50: it is the midpoint of a concentration-inhibition curve. `Fc1cc(F)c(F)c(-c2nnc(N[C@H]3C[C@@H]4CN(CC5CCOCC5)C[C@@H]4C3)c3ccsc23)c1` [compound 16, N-((3aR,5s,6aS)-2-((tetrahydro-2H-pyran-4-yl)methyl)octahydrocyclopenta[c]pyrrol-5-yl)-7-(2,3,5-trifluorophenyl)thieno[2,3-d]pyridazin-4-amine]: the IC50 was determined as 1.71 nM and the remaining activity at 30 µM turned out to be 4%.

`Fc1cccc(-c2nnc(N[C@H]3C[C@@H]4CN(CC5CCOCC5)C[C@@H]4C3)c3c2CCCC3)c1` [compound 25, 4-(3-fluorophenyl)-N-((3aR,5s,6aS)-2-((tetrahydro-2H-pyran-4-yl)methyl)octahydrocyclopenta[c]pyrrol-5-yl)-5,6,7,8-tetrahydrophthalazin-1-amine]: the IC50 stood at 9.04 nM and the remaining activity at 30 µM is 3%.

Take `Fc1ccc(F)c(-c2nnc(N[C@H]3C[C@@H]4CN(CC5CCOCC5)C[C@@H]4C3)c3sccc23)c1` [compound 10, 4-(2,5-difluorophenyl)-N-((3aR,5s,6aS)-2-((tetrahydro-2H-pyran-4-yl)methyl)octahydrocyclopenta[c]pyrrol-5-yl)thieno[2,3-d]pyridazin-7-amine]: the IC50 came out at 6.25 nM and the remaining activity at 30 µM turned out to be 4%.

With `Cn1cc2cc(-c3nnc(N[C@H]4C[C@@H]5CN(CC6CCOCC6)C[C@@H]5C4)c4ccsc34)ccc2n1` [compound 9, 7-(2-methyl-2H-indazol-5-yl)-N-((3aR,5s,6aS)-2-((tetrahydro-2H-pyran-4-yl)methyl)octahydrocyclopenta[c]pyrrol-5-yl)thieno[2,3-d]pyridazin-4-amine], the IC50 worked out at 2.96 nM and the remaining activity at 30 µM worked out at 3%.

Regarding `Fc1ccc(-c2nnc(N[C@H]3C[C@@H]4CN(CC5CCOCC5)C[C@@H]4C3)c3c2CCCC3)cc1` [compound 26, 4-(4-fluorophenyl)-N-((3aR,5s,6aS)-2-((tetrahydro-2H-pyran-4-yl)methyl)octahydrocyclopenta[c]pyrrol-5-yl)-5,6,7,8-tetrahydrophthalazin-1-amine], the IC50 was found to be 58.9 nM and the remaining activity at 30 µM stood at 3%.

On to `Fc1ccccc1-c1nnc(N[C@H]2C[C@@H]3CN(CC4CCOCC4)C[C@@H]3C2)c2sccc12` [compound 15, 4-(2-fluorophenyl)-N-((3aR,5s,6aS)-2-((tetrahydro-2H-pyran-4-yl)methyl)octahydrocyclopenta[c]pyrrol-5-yl)thieno[2,3-d]pyridazin-7-amine], for which the IC50 came to 2.31 nM and the remaining activity at 30 µM is 3%.

As for `Cc1ccccc1-c1nnc(N[C@H]2C[C@@H]3CN(CC4CCOCC4)C[C@@H]3C2)c2ccsc12` [compound 5, N-((3aR,5s,6aS)-2-((tetrahydro-2H-pyran-4-yl)methyl)octahydrocyclopenta[c]pyrrol-5-yl)-7-(o-tolyl)thieno[2,3-d]pyridazin-4-amine], the IC50 was 2.47 nM and the remaining activity at 30 µM stood at 4%.

With `Fc1ccc(F)c(-c2nnc(N[C@H]3C[C@@H]4CN(CC5CCOCC5)C[C@@H]4C3)c3c2CCCC3)c1` [compound 23, 4-(2,5-difluorophenyl)-N-((3aR,5s,6aS)-2-((tetrahydro-2H-pyran-4-yl)methyl)octahydrocyclopenta[c]pyrrol-5-yl)-5,6,7,8-tetrahydrophthalazin-1-amine], the IC50 came out at 5.43 nM and the remaining activity at 30 µM was 3%.

Regarding `Clc1nnc(N[C@H]2C[C@@H]3CN(CC4CCOCC4)C[C@@H]3C2)c2ccsc12` [compound 1, 7-chloro-N-((3aR,5s,6aS)-2-((tetrahydro-2H-pyran-4-yl)methyl)octahydrocyclopenta[c]pyrrol-5-yl)thieno[2,3-d]pyridazin-4-amine], the IC50 was found to be 204 nM and the remaining activity at 30 µM is 3%.

As for `Fc1ccccc1-c1nnc(N[C@H]2C[C@@H]3CN(CC4CCOCC4)C[C@@H]3C2)c2c1CCCC2` [compound 24, 4-(2-fluorophenyl)-N-((3aR,5s,6aS)-2-((tetrahydro-2H-pyran-4-yl)methyl)octahydrocyclopenta[c]pyrrol-5-yl)-5,6,7,8-tetrahydrophthalazin-1-amine], the concentration for half-maximal inhibition (IC50) came to 6.2 nM and the remaining activity at 30 µM was 3%.

In the case of `c1ccc(-c2nnc(N[C@H]3C[C@@H]4CN(CC5CCOCC5)C[C@@H]4C3)c3sccc23)cc1` [compound 14, 4-phenyl-N-((3aR,5s,6aS)-2-((tetrahydro-2H-pyran-4-yl)methyl)octahydrocyclopenta[c]pyrrol-5-yl)thieno[2,3-d]pyridazin-7-amine], the IC50 stood at 1.46 nM and the remaining activity at 30 µM was 4%.

For `FC1(F)CCN(c2nnc(N[C@H]3C[C@@H]4CN(CC5CCOCC5)C[C@@H]4C3)c3ccsc23)CC1` [compound 20, 7-(4,4-difluoropiperidin-1-yl)-N-((3aR,5s,6aS)-2-((tetrahydro-2H-pyran-4-yl)methyl)octahydrocyclopenta[c]pyrrol-5-yl)thieno[2,3-d]pyridazin-4-amine], the IC50 came to 5.64 nM and the remaining activity at 30 µM stood at 3%.

For `Cc1ccc(C)c(-c2nnc(N[C@H]3C[C@@H]4CN(CC5CCOCC5)C[C@@H]4C3)c3ccsc23)c1` [compound 4, 7-(2,5-dimethylphenyl)-N-((3aR,5s,6aS)-2-((tetrahydro-2H-pyran-4-yl)methyl)octahydrocyclopenta[c]pyrrol-5-yl)thieno[2,3-d]pyridazin-4-amine], the IC50 is 13.6 nM and the remaining activity at 30 µM is 3%.

As to `[2H]C([2H])(C1CCOCC1)N1C[C@H]2C[C@H](Nc3nnc(-c4cc(F)ccc4C)c4sccc34)C[C@H]2C1` [compound 19, 7-(5-fluoro-2-methylphenyl)-N-((3aR,5s,6aS)-2-((tetrahydro-2H-pyran-4-yl)methyl-d2)octahydrocyclopenta[c]pyrrol-5-yl)thieno[2,3-d]pyridazin-4-amine], the IC50 is 1.4 nM and the remaining activity at 30 µM stood at 3%.

As to `c1ccc(-c2nnc(N[C@H]3C[C@@H]4CN(CC5CCOCC5)C[C@@H]4C3)c3ccsc23)cc1` [compound 8, 7-phenyl-N-((3aR,5s,6aS)-2-((tetrahydro-2H-pyran-4-yl)methyl)octahydrocyclopenta[c]pyrrol-5-yl)thieno[2,3-d]pyridazin-4-amine], the 50% inhibitory concentration (IC50) worked out at 4.72 nM and the remaining activity at 30 µM was determined as 3%.

Turning to `Cn1cc2cc(-c3nnc(N[C@H]4C[C@@H]5CN(CC6CCOCC6)C[C@@H]5C4)c4sccc34)ccc2n1` [compound 13, 4-(2-methyl-2H-indazol-5-yl)-N-((3aR,5s,6aS)-2-((tetrahydro-2H-pyran-4-yl)methyl)octahydrocyclopenta[c]pyrrol-5-yl)thieno[2,3-d]pyridazin-7-amine], the IC50 came out at 0.697 nM and the remaining activity at 30 µM turned out to be 3%.

On to `Fc1ccccc1-c1nnc(N[C@H]2C[C@@H]3CN(CC4CCOCC4)C[C@@H]3C2)c2ccsc12` [compound 7, 7-(2-fluorophenyl)-N-((3aR,5s,6aS)-2-((tetrahydro-2H-pyran-4-yl)methyl)octahydrocyclopenta[c]pyrrol-5-yl)thieno[2,3-d]pyridazin-4-amine], for which the 50% inhibitory concentration (IC50) came to 7690 nM and the remaining activity at 30 µM amounted to 15%.
